In ChEMBL document CHEMBL4665745, “Bioactive Lignans from Hypoestes aristata” (J Nat Prod, 2020) one finds Activity and inhibition data, which are given here for six molecules.

Assay [1] has as its system MDA-MB-231. The experiment in a line: Cytotoxicity against human MDA-MB-231 cells assessed as reduction in cell viability at >90 uM after 48 hrs. The following applies: dose microM >90, time 48.0 hrs. In kind it is functional, cell-based.
Assay [2] has as its target Human immunodeficiency virus type 1 protease (Human immunodeficiency virus 1) (UniProt Q72874). The experiment in a line: Inhibition of HIV-1 protease at >100 uM after 1 hr by fluorescence assay. The following applies: dose microM >100, time 1.0 hrs.
Assay [3] has as its system MCF7. The experiment in a line: Cytotoxicity against human MCF7 cells assessed as reduction in cell viability after 48 hrs. In kind it is functional, cell-based.
For assay [4], the system named is MDA-MB-231. The experiment in a line: Cytotoxicity against human MDA-MB-231 cells assessed as reduction in cell viability after 48 hrs. Format: functional, cell-based.
Assay [5] relates to MCF7. Nature of the assay: Cytotoxicity against human MCF7 cells assessed as reduction in cell viability at <90 uM after 48 hrs. Format: functional, cell-based. Conditions: dose microM <90, time 48.0 hrs.
Assay [6] addresses Human immunodeficiency virus type 1 protease (Human immunodeficiency virus 1) (UniProt Q72874). Nature of the assay: Inhibition of HIV-1 protease at <60 uM after 1 hr by fluorescence assay. The following applies: dose microM <60, time 1.0 hrs.

Molecules are shown by their SMILES. The source made the active and inactive calls. No cut-off for these calls is given here.

Regarding `CC(=O)O[C@@H](c1ccc2c(c1)OCO2)[C@H]1COC(O)[C@@H]1[C@@H](OC(C)=O)c1ccc2c(c1)OCO2` (stereo partly specified), the result with MDA-MB-231 [1] and with MCF7 [5] was inactive. Moreover, in assay [2], the inhibition result was “Active”. Also, the outcome in the assay with MCF7 [3] and in the assay with MDA-MB-231 [4] was Active.

Consider `CC(=O)O[C@H](c1ccc2c(c1)OCO2)[C@H]1COC(=O)[C@@H]1[C@H](O)c1ccc2c(c1)OCO2`, for which the outcome in the assay with MDA-MB-231 [1] and with MCF7 [5] was inactive. The inhibition entry in assay [2] is “Active”. The result in the assay on MCF7 [3] and in the assay with MDA-MB-231 [4] was Active.

Turning to `CC(=O)O[C@H](c1ccc2c(c1)OCO2)[C@H]1COC(=O)[C@@H]1[C@H](OC(C)=O)c1ccc2c(c1)OCO2`, the outcome in the assay with MDA-MB-231 [1] and with MCF7 [5] was inactive. The inhibition entry in assay [2] and in assay [6] was “Active” in each case. The result with MCF7 [3] and in the assay on MDA-MB-231 [4] was Active.

Consider `COc1cc([C@H]2OC[C@H]3[C@@H]2CO[C@@H]3c2cc(OC)c(O)c(OC)c2)ccc1O`, for which the inhibition entry in assay [2] was “Active”.

Consider `CC(=O)N[C@H](C(=O)N[C@H](C(=O)N[C@@H](CC(C)C)[C@@H](O)CC(=O)N[C@@H](C)C(=O)N[C@@H](CC(C)C)[C@@H](O)CC(=O)O)C(C)C)C(C)C`, for which the result in the assay with MDA-MB-231 [1] and in the assay with MCF7 [5] was inactive.

`O=C1OC[C@H](Cc2ccc3c(c2)OCO3)[C@H]1Cc1ccc2c(c1)OCO2`: the inhibition result in assay [2] and in assay [6] was “Active” in each case.
